Source: patent US20050256103A1, “Indole derivative having piperidine ring” (Eisai Co., Ltd., priority 2004, published 2005)

Experiments:
Type in all cases: in vivo
male C57BL mice = experiment: Antianxiety effect by mouse light/dark box test; conditions: sc, 30 minutes before test, 5 min observation, N 7
Method: (1) The method of Belzung C., Misslin R., and Vogel E. (Reference: Behavioural effects of the benzodiazepine receptor partial agonist RO16-6028 in mice, Psychopharmacology, 97, 388-391, 1989) was modified. The present mouse light/dark box test was carried out according to such a modified method. As a test device used in this test, a lidded black acryl box (dark box, 15×10×20 cm) was connected to a lidless white acryl box (light box, 15×20×20 cm) using a black-acryl tunnel (10×7×4.5 cm), so as to prepare a light/dark box in which a mouse can freely move between the dark box and the light box. In this test device, in order to observe the behavior of the mouse, the anterior surface (20×20 cm) and back surface (20×20 cm) of the light box were made from transparent acryl. The illumination was set to provide in an illuminance of 150 Lux on the floor of the light box. Thereafter, each of male C57BL mice (20-35 g) was placed in the dark box, and the test was started. In this test, a test substance was subcutaneously administered to the test animal 30 minutes before the initiation of the test.
A state where the 4 legs of the mouse were contacted with on the floor of the light box was defined as stay at a light place, and the time when the mouse stayed at a light place was measured. The obtained time was used as an index of antianxiety action.

[1] = tested on: urinary reflex of Sprague-Dawley female rats; experiment: Inhibitory action against accentuated urinary reflex of rat due to destruction of the superior colliculus (cystometrogram); conditions: dose 0.3 mg/kg, iv; rat with superior colliculus lesion
From the text: (1) In the present test, Sprague-Dawley female rates (200-350 g) were used. The rats were subjected to median incision of the abdomen under anesthesia. Thereafter, a hole with a minor diameter was made on the head portion of the bladder, and a catheter used for measurement of an intravesical pressure was placed therein. A catheter used for administration of a test substance was placed in the femoral vein. These catheters were fixed at the occipital region of the rat through the subcutis. One day later, the urinary reflex of the rats was measured with a cystometrogram. Thereafter, the rats were fixed on a brain stereotaxis apparatus under anesthesia, and then subjected to median incision of the scalp. […] Thereafter, electric current was applied (65° C., 4 minutes), so as to damage the brain tissues. After completion of the operation, when the rat awakened from anesthesia, cystometrogram was conducted again to confirm the enhanced state of urinary reflex. A test substance was administered through the catheter placed in the femoral vein, and the action of the test substance to the urinary reflex was evaluated. In addition, the effects of several test substances were compared using the maximal reaction (Emax).

serotonin 1A receptor = target: T1, serotonin 1A receptor (Mus musculus, UniProt Q64264); experiment: Antagonistic effect on serotonin 1A receptor agonist (8-OH-DPAT)-induced hypothermia in mouse; conditions: CD-1 (ICR) male mice; inhibition of hypothermia by 8-OH-DPAT 0.5 mg/kg sc; test substance 15 minutes before agonist
T1 construct: into the rectum of CD-1 (ICR) male mice (25-45 g); from tissue; host or cells: living CD-1 (ICR) male mice (in vivo)
T1 sequence (Q64264 1-421): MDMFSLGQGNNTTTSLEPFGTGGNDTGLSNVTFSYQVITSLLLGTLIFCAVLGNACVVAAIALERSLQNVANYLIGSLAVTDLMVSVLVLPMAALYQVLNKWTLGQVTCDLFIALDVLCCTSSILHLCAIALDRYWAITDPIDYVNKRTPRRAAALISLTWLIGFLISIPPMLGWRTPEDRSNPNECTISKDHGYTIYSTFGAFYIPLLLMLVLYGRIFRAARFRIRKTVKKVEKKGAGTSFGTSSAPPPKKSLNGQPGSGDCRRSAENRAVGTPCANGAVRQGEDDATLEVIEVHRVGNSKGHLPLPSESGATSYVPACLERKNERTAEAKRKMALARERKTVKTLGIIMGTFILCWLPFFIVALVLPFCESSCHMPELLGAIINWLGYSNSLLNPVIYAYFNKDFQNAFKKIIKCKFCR
Procedure, shortened: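 CD-1 (ICR) male mice, 25-45 g; rectal temperature by thermistor probe at about 2 cm depth. Test substance given 15 min before s.c. 8-OH-DPAT […]; antagonism scored as inhibition of the induced hypothermia.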

- ED50 (serotonin 1A receptor): 0.03 mg/kg, sc
Structure (SMILES): CNC(=O)c1ccc2ccn(C3CCN(CCc4c(OC)ccc5c4OC(C)(C)CC5=O)CC3)c2c1 [Compound 20, 1-{1-[2-(7-methoxy-2,2-dimethyl-4-oxochroman-8-yl)ethyl]piperidin-4-yl}-N-methyl-1H-indole-6-carboxamide]
- Time of stay at light place (male C57BL mice; 0.03 mg/kg): 46 ± 9.4 s
- Time of stay at light place (male C57BL mice; 0.1 mg/kg): 67 ± 19 s
- Bladder capacity Emax [1]: 94%
